In patent publication US10100097B2, “GIP-GLP-1 dual agonist compounds and methods” (Zealand Pharma A/S, priority 2012, dated 2018):
Numbered stars: 1 amine (or outer) side, 2 acyl side, 3 side chain; on linkers, the order of the positions; unused ones are H or OH. Square brackets hold non-standard residues; d marks the D form. Side chains are listed from the residue outwards. Peptide text beside a SMILES is read from it. * marks the point of attachment. γGlu = O=C(O)[C@H](CCC(=O)[*:2])N[*:1]; 1Nal = N[C@@H](Cc1cccc2ccccc12)C(=O)O; Palmitoyl = CCCCCCCCCCCCCCCC(=O)*; Aib = CC(C)(N)C(=O)O

Target: T1, human GLP-1 R (Homo sapiens, UniProt P43220)
T1 construct: expressed in transfected cells
Experiment: Human GLP-1 receptor (GLP-1 R) activity assay, cAMP induction (AlphaScreen cAMP kit)
Format: cell-based
Conditions: HEK293 cells expressing the human GLP-1 R, 15 min at 37° C., average values of multiple determinations, read-out: GLP1 R (EC50 in nM)
Method: Human GIP Receptor (GIP R) and GLP-1 Receptor (GLP-1 R) Activity Assay
In vitro effects of peptide conjugates of the invention were assessed by measuring the induction of cAMP following stimulation of the respective receptor by GIP, GLP1 or analogues of these, as outlined in the invention, using the AlphaSceen® cAMP kit from Perkin-Elmer according to instructions. Briefly. HEK293 cells expressing the human GIP R or GLP-1 R (stable cell lines generated through transfection of the cDNA for human GIP R or GLP-1 and selection of stable clones) were seeded at 30,000 cells/well in 96-well microtiter plates coated with 0.01% poly-L-lysine, and grown for 1 day in culture in 200 μl growth medium (DMEM, 10% FCS, Penicillin (100 IU/ml), Streptomycin (100 μg/ml)). On the day of analysis, growth medium was removed and the cells were washed once with […] Tyrode's buffer (Tyrode's Salts (9.6 g/1), 10 mM HEPES, pH 7.4). […] The Assay buffer was removed and cells are lysed in 80 μl Lysis buffer (0.1% w/v BSA, 5 mM HEPES, 0.3% v/v Tween-20) per well. From each well 10 μl lysed cells was transferred to a 384-well plate and mixed with 15 μl bead-mix (1 Unit/15 μl anti-cAMP Acceptor Beads, 1 Unit/15 μl Donor Beads, and 1 Unit/15 μl Biotinylated cAMP in Assay Buffer). The plates were mixed and incubated in the dark for an hour at room temperature before measuring using an Envision™ plate reader (Perkin-Elmer).

T1 sequence (P43220 24-463): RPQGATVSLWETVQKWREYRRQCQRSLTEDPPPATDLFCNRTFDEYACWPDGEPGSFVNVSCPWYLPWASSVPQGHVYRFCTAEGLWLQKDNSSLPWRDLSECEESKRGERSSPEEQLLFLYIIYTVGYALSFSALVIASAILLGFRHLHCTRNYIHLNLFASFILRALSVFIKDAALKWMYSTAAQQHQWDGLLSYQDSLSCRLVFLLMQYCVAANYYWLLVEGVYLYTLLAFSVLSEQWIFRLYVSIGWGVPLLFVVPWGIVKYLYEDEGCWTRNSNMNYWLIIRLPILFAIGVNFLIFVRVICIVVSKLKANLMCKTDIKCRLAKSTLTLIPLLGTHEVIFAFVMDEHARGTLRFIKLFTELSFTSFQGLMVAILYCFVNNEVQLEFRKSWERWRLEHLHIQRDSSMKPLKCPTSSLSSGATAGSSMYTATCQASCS

Row | EC50 [nM] | SMILES
1 | 0.11 | CCCCCCCCCCCCCCCC(=O)N[C@@H](CCC(=O)NCCCC[C@H](NC(=O)[C@H](CO)NC(=O)[C@H](CC(=O)O)NC(=O)[C@H](CC(C)C)NC(=O)[C@H](Cc1ccc(O)cc1)NC(=O)[C@H](CCCCN)NC(=O)[C@H](CO)NC(=O)[C@H](Cc1ccc(O)cc1)NC(=O)[C@H](CC(=O)O)NC(=O)[C@H](CO)NC(=O)[C@@H](NC(=O)[C@H](Cc1ccccc1)NC(=O)[C@@H](NC(=O)CNC(=O)[C@H](CCC(=O)O)NC(=O)C(C)(C)NC(=O)[C@@H](N)Cc1ccc(O)cc1)[C@@H](C)O)[C@@H](C)O)C(=O)N[C@@H](C)C(=O)N[C@@H](C)C(=O)N[C@@H](Cc1c[nH]cn1)C(=O)N[C@@H](CC(=O)O)C(=O)N[C@@H](Cc1ccccc1)C(=O)N[C@H](C(=O)N[C@@H](CCC(=O)O)C(=O)N[C@@H](Cc1c[nH]c2ccccc12)C(=O)N[C@@H](CC(C)C)C(=O)N[C@@H](CC(C)C)C(=O)N[C@@H](CCCNC(=N)N)C(=O)N[C@@H](C)C(N)=O)C(C)C)C(=O)O [Compound 51] (H-Y[Aib]EGTFTSDYSKYLDSK([γGlu-Palmitoyl])AAHDFVEWLLRA-NH2)
2 | 0.031 | CCCCCCCCCCCCCCCC(=O)N[C@@H](CCC(=O)NCCCC[C@H](NC(=O)[C@H](CCC(=O)O)NC(=O)[C@H](CC(=O)O)NC(=O)[C@H](CC(C)C)NC(=O)[C@H](Cc1ccc(O)cc1)NC(=O)[C@@H](NC(=O)[C@H](CO)NC(=O)[C@H](Cc1ccc(O)cc1)NC(=O)[C@H](CC(=O)O)NC(=O)[C@H](CO)NC(=O)[C@@H](NC(=O)[C@H](Cc1ccccc1)NC(=O)[C@@H](NC(=O)CNC(=O)[C@H](CCC(=O)O)NC(=O)C(C)(C)NC(=O)[C@@H](N)Cc1ccc(O)cc1)[C@@H](C)O)[C@@H](C)O)[C@@H](C)CC)C(=O)N[C@@H](C)C(=O)N[C@@H](C)C(=O)N[C@@H](CCCCN)C(=O)N[C@@H](CCC(=O)O)C(=O)N[C@@H](Cc1ccccc1)C(=O)N[C@H](C(=O)N[C@@H](CCC(=O)O)C(=O)N[C@@H](Cc1c[nH]c2ccccc12)C(=O)N[C@@H](CC(C)C)C(=O)N[C@@H](CCC(=O)O)C(=O)N[C@@H](CO)C(=O)N[C@@H](C)C(N)=O)[C@@H](C)CC)C(=O)O [Compound 34] (H-Y[Aib]EGTFTSDYSIYLDEK([γGlu-Palmitoyl])AAKEFIEWLESA-NH2)
3 | 0.041 | CC[C@H](C)[C@H](NC(=O)[C@H](CO)NC(=O)[C@H](Cc1ccc(O)cc1)NC(=O)[C@H](CC(=O)O)NC(=O)[C@H](CO)NC(=O)[C@@H](NC(=O)[C@H](Cc1ccccc1)NC(=O)[C@@H](NC(=O)CNC(=O)[C@H](CCC(=O)O)NC(=O)C(C)(C)NC(=O)[C@@H](N)Cc1ccc(O)cc1)[C@@H](C)O)[C@@H](C)O)C(=O)N[C@@H](Cc1ccc(O)cc1)C(=O)N[C@@H](CC(C)C)C(=O)N[C@@H](CC(=O)O)C(=O)N[C@@H](CCCCN)C(=O)N[C@@H](CCCCN)C(=O)N[C@@H](C)C(=O)N[C@@H](CCC(N)=O)C(=O)N[C@@H](CCCNC(=N)N)C(=O)N[C@@H](C)C(=O)N[C@@H](Cc1ccccc1)C(=O)N[C@H](C(=O)N[C@@H](CC(N)=O)C(=O)N[C@@H](Cc1c[nH]c2ccccc12)C(=O)N[C@@H](CC(C)C)C(=O)N[C@@H](CC(C)C)C(=O)N[C@@H](C)C(=O)NC(C)(C)C(=O)N[C@@H](CCCCN)C(=O)N[C@@H](Cc1ccc(O)cc1)C(=O)NCC(=O)N[C@@H](Cc1cccc2ccccc12)C(=O)N[C@@H](CC(C)C)C(=O)N[C@@H](CC(=O)O)C(=O)N[C@@H](Cc1ccccc1)C(N)=O)C(C)C [Compound 25] (H-Y[Aib]EGTFTSDYSIYLDKKAQRAFVNWLLA[Aib]KYG[1Nal]LDF-NH2)
4 | 0.018 | CC[C@H](C)[C@H](NC(=O)[C@H](CO)NC(=O)[C@H](Cc1ccc(O)cc1)NC(=O)[C@H](CC(=O)O)NC(=O)[C@H](CO)NC(=O)[C@@H](NC(=O)[C@H](Cc1ccccc1)NC(=O)[C@@H](NC(=O)CNC(=O)[C@H](CCC(=O)O)NC(=O)C(C)(C)NC(=O)[C@@H](N)Cc1ccc(O)cc1)[C@@H](C)O)[C@@H](C)O)C(=O)N[C@@H](Cc1ccc(O)cc1)C(=O)N[C@@H](CC(C)C)C(=O)N[C@@H](CCC(=O)O)C(=O)N[C@@H](CCCCN)C(=O)N[C@@H](CCCCN)C(=O)N[C@@H](C)C(=O)N[C@@H](C)C(=O)N[C@@H](CCCCN)C(=O)N[C@@H](CC(=O)O)C(=O)N[C@@H](Cc1ccccc1)C(=O)N[C@H](C(=O)N[C@@H](CCC(=O)O)C(=O)N[C@@H](Cc1c[nH]c2ccccc12)C(=O)N[C@@H](CC(C)C)C(=O)N[C@@H](CC(C)C)C(=O)N[C@@H](CO)C(=O)N[C@@H](C)C(N)=O)C(C)C [Compound 37] (H-Y[Aib]EGTFTSDYSIYLEKKAAKDFVEWLLSA-NH2)
5 | 0.009 | CC[C@H](C)[C@H](NC(=O)[C@H](CO)NC(=O)[C@H](Cc1ccc(O)cc1)NC(=O)[C@H](CC(=O)O)NC(=O)[C@H](CO)NC(=O)[C@@H](NC(=O)[C@H](Cc1ccccc1)NC(=O)[C@@H](NC(=O)CNC(=O)[C@H](CCC(=O)O)NC(=O)C(C)(C)NC(=O)[C@@H](N)Cc1ccc(O)cc1)[C@@H](C)O)[C@@H](C)O)C(=O)N[C@@H](Cc1ccc(O)cc1)C(=O)N[C@@H](CC(C)C)C(=O)N[C@@H](CC(=O)O)C(=O)N[C@@H](CCCCN)C(=O)N[C@@H](CCCCN)C(=O)N[C@@H](C)C(=O)N[C@@H](CCC(N)=O)C(=O)N[C@@H](CCCNC(=N)N)C(=O)N[C@@H](C)C(=O)N[C@@H](Cc1ccccc1)C(=O)N[C@H](C(=O)N[C@@H](CCCCN)C(=O)N[C@@H](Cc1c[nH]c2ccccc12)C(=O)N[C@@H](CC(C)C)C(=O)N[C@@H](CC(C)C)C(=O)N[C@@H](C)C(=O)NC(C)(C)C(=O)N[C@@H](CCCCN)C(N)=O)C(C)C [Compound 20] (H-Y[Aib]EGTFTSDYSIYLDKKAQRAFVKWLLA[Aib]K-NH2)
6 | 0.015 | CC[C@H](C)[C@H](NC(=O)[C@H](CO)NC(=O)[C@H](Cc1ccc(O)cc1)NC(=O)[C@H](CC(=O)O)NC(=O)[C@H](CO)NC(=O)[C@@H](NC(=O)[C@H](Cc1ccccc1)NC(=O)[C@@H](NC(=O)CNC(=O)[C@H](CCC(=O)O)NC(=O)C(C)(C)NC(=O)[C@@H](N)Cc1ccc(O)cc1)[C@@H](C)O)[C@@H](C)O)C(=O)N[C@@H](Cc1ccc(O)cc1)C(=O)N[C@@H](CC(C)C)C(=O)N[C@@H](CC(=O)O)C(=O)N[C@@H](CO)C(=O)N[C@@H](CCCCN)C(=O)N[C@@H](C)C(=O)N[C@@H](CCCCN)C(=O)N[C@@H](CCCNC(=N)N)C(=O)N[C@@H](C)C(=O)N[C@@H](Cc1ccccc1)C(=O)N[C@H](C(=O)N[C@@H](CC(N)=O)C(=O)N[C@@H](Cc1c[nH]c2ccccc12)C(=O)N[C@@H](CC(C)C)C(=O)N[C@@H](CC(C)C)C(=O)N[C@@H](C)C(=O)NC(C)(C)C(=O)N[C@@H](CCCCN)C(N)=O)C(C)C [Compound 18] (H-Y[Aib]EGTFTSDYSIYLDSKAKRAFVNWLLA[Aib]K-NH2)
7 | 0.011 | CC[C@H](C)[C@H](NC(=O)[C@H](CO)NC(=O)[C@H](Cc1ccc(O)cc1)NC(=O)[C@H](CC(=O)O)NC(=O)[C@H](CO)NC(=O)[C@@H](NC(=O)[C@H](Cc1ccccc1)NC(=O)[C@@H](NC(=O)CNC(=O)[C@H](CCC(=O)O)NC(=O)C(C)(C)NC(=O)[C@@H](N)Cc1ccc(O)cc1)[C@@H](C)O)[C@@H](C)O)C(=O)N[C@@H](Cc1ccc(O)cc1)C(=O)N[C@@H](CC(C)C)C(=O)N[C@@H](CCC(=O)O)C(=O)N[C@@H](CCCCN)C(=O)N[C@@H](CCCCN)C(=O)N[C@@H](C)C(=O)N[C@@H](CCC(N)=O)C(=O)N[C@@H](CCCCN)C(=O)N[C@@H](CCC(=O)O)C(=O)N[C@@H](Cc1ccccc1)C(=O)N[C@H](C(=O)N[C@@H](CCC(=O)O)C(=O)N[C@@H](Cc1c[nH]c2ccccc12)C(=O)N[C@@H](CC(C)C)C(=O)N[C@@H](CC(C)C)C(=O)N[C@@H](CO)C(=O)N[C@@H](C)C(N)=O)C(C)C [Compound 39] (H-Y[Aib]EGTFTSDYSIYLEKKAQKEFVEWLLSA-NH2)

Row | SMILES | EC50 [nM]
8 | CC[C@H](C)[C@H](NC(=O)[C@H](CO)NC(=O)[C@H](Cc1ccc(O)cc1)NC(=O)[C@H](CC(=O)O)NC(=O)[C@H](CO)NC(=O)[C@@H](NC(=O)[C@H](Cc1ccccc1)NC(=O)[C@@H](NC(=O)CNC(=O)[C@H](CCC(=O)O)NC(=O)C(C)(C)NC(=O)[C@@H](N)Cc1ccc(O)cc1)[C@@H](C)O)[C@@H](C)O)C(=O)NC(C)(C)C(=O)N[C@@H](CC(C)C)C(=O)N[C@@H](CC(=O)O)C(=O)N[C@@H](CCCCN)C(=O)N[C@@H](CCCCN)C(=O)N[C@@H](C)C(=O)N[C@@H](CCC(N)=O)C(=O)N[C@@H](CCCNC(=N)N)C(=O)N[C@@H](C)C(=O)N[C@@H](Cc1ccccc1)C(=O)N[C@H](C(=O)N[C@@H](CCC(=O)O)C(=O)N[C@@H](Cc1c[nH]c2ccccc12)C(=O)N[C@@H](CC(C)C)C(=O)N[C@@H](CC(C)C)C(=O)N[C@@H](C)C(=O)N[C@@H](CCC(N)=O)C(=O)NCC(=O)N1CCC[C@H]1C(=O)N[C@@H](CO)C(=O)N[C@@H](CO)C(=O)NCC(=O)N[C@@H](C)C(=O)N1CCC[C@H]1C(=O)N1CCC[C@H]1C(=O)N1CCC[C@H]1C(=O)N[C@@H](CO)C(N)=O)C(C)C [Compound 2] (H-Y[Aib]EGTFTSDYSI[Aib]LDKKAQRAFVEWLLAQGPSSGAPPPS-NH2) | 0.015
